Data: publication PMC7750294 (Journal of pharmaceutical sciences, 2020)
Several values for one entry are separate records, joined by “and”; a condition that tells them apart may be missing. Identical values can stand only once. Like-named read-outs stand apart in the source and are kept apart here.

Assays:
[1] = cited from earlier work
OATP1B1 [2] = molecular target: T1, OATP1B1 (Homo sapiens, UniProt Q9Y6L6); conditions: read-out: Apparent Km of transport by OATP1B1; cited from earlier work
T1 sequence (Q9Y6L6 1-691): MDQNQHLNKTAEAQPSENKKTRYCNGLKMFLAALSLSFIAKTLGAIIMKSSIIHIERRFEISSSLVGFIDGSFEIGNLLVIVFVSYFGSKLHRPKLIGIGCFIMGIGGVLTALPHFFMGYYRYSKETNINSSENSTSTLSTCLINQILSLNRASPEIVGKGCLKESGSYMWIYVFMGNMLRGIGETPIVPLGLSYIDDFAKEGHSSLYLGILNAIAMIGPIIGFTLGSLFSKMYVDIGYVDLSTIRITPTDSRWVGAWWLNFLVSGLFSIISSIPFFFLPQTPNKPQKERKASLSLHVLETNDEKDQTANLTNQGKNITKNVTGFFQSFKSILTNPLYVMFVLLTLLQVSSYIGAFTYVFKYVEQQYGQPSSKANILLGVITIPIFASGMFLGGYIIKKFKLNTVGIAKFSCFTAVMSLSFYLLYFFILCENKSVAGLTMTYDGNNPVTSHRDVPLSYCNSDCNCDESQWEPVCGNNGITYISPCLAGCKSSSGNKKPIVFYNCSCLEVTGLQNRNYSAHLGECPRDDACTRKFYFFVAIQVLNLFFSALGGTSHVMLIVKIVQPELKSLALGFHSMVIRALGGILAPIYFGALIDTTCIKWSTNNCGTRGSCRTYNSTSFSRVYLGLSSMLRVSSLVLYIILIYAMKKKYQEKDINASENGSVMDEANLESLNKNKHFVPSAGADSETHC

Caco-2 cell monolayers = conditions: cited from earlier work; for Reference Papp,caco-2 (7.4:7.4): ref Simcyp library value
P-gp = conditions: cited from earlier work
OATP1B1 [3] = molecular target: T1, OATP1B1; assay: Inhibition of OATP1B1-mediated [3H]-E217βG accumulation in HEK293-OATP1B1 cells; type: cell-based
[4] = Vemurafenib PBPK model parameters; parameters: species or system human
OATP1B3 [5] = molecular target: T2, OATP1B3 (Homo sapiens, UniProt Q9NPD5); conditions: cited from earlier work
T2 sequence (Q9NPD5 1-702): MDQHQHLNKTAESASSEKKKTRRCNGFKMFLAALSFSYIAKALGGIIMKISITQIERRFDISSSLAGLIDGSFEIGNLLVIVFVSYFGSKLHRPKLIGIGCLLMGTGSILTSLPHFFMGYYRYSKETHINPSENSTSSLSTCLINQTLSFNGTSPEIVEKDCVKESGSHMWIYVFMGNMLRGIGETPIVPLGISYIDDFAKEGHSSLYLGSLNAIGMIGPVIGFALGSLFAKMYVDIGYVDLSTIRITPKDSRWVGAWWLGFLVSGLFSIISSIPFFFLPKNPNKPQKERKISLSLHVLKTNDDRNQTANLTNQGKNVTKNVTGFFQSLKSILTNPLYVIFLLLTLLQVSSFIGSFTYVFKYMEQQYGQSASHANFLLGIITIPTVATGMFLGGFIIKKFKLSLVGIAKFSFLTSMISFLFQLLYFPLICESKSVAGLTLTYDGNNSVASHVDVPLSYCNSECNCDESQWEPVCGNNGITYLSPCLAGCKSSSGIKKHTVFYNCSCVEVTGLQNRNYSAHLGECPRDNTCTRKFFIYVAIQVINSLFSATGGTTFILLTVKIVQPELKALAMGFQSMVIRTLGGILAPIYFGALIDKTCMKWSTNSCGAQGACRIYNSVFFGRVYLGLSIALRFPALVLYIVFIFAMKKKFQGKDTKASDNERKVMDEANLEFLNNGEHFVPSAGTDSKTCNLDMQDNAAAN

[6] = cited from earlier work; remark: listed apart in the source
Estimation of Iin,max = assay: Estimation of Iin,max; parameters: species or system human; conditions: 960 mg; faFg = 1; Eq. 4
OATP1B3 [7] = molecular target: T2, OATP1B3; assay: Inhibition of OATP1B3-mediated [3H]-CCK-8 accumulation in HEK293-OATP1B3 cells; type: cell-based
[8] = cited from earlier work; for Aqueous solubility: highest/maximum aqueous solubility
OATP1B1 [9] = molecular target: T1, OATP1B1; conditions: 10 μM vemurafenib, aqueous buffer; cited from earlier work
[10] = IC50,total against OATP1B1, 100% human plasma (pH 7.4), [3H]-E217βG 5 μM, 3 min, HEK293-OATP1B1
[11] = vemurafenib 150 μM in human plasma

In the case of `C[C@]12CC[C@@H]3c4ccc(O)cc4CC[C@H]3[C@@H]1CC[C@@H]2O[C@@H]1O[C@H](C(=O)O)[C@@H](O)[C@H](O)[C@H]1O` [E217βG, estradiol 17 β-D-glucuronide], the “fu (reported protein binding)” value [1] is listed as 0.39 and the Km (OATP1B1 [2]) is listed as roughly 8.3 µM.

For `CN/C(=N/CCSCc1nc[nH]c1C)NC#N` [cimetidine], the “Reference Papp,caco-2 (7.4:7.4)” value (Caco-2 cell monolayers) is given as 4 10^−6 cm/s.

For `C[C@H]1O[C@@H](O[C@H]2[C@@H](O)C[C@H](O[C@H]3[C@@H](O)C[C@H](O[C@H]4CC[C@@]5(C)[C@H](CC[C@@H]6[C@@H]5C[C@@H](O)[C@]5(C)[C@@H](C7=CC(=O)OC7)CC[C@]65O)C4)O[C@@H]3C)O[C@@H]2C)C[C@H](O)[C@@H]1O` [digoxin], the Mean terminal half-life (P-gp; single dose of digoxin alone) is given as 35.0 h and the Mean terminal half-life (P-gp; single dose of digoxin co-administered with vemurafenib) is given as 56.4 h.

In the case of `CNC(=C[N+](=O)[O-])NCCSCc1ccc(CN(C)C)o1` [ranitidine], the “Reference Papp,caco-2 (7.4:7.4)” value (Caco-2 cell monolayers) is given as 1.2 10^−6 cm/s.

Work on `CO[C@H]1/C=C/O[C@@]2(C)Oc3c(C)c(O)c4c(O)c(c(/C=N/N5CCN(C)CC5)c(O)c4c3C2=O)NC(=O)/C(C)=C\C=C\[C@H](C)[C@H](O)[C@@H](C)[C@@H](O)[C@@H](C)[C@H](OC(C)=O)[C@@H]1C` [rifampicin] yielded an IC50 (OATP1B1 [3]; [10]) of 2.1 µM and an IC50 (OATP1B1 [3]; read-out: Estimated IC50,unbound,OATP1B1, IC50,total 2.1 μM × fu,plasma 0.116) of 0.24 µM.

For `CCCS(=O)(=O)Nc1ccc(F)c(C(=O)c2c[nH]c3ncc(-c4ccc(Cl)cc4)cc23)c1F` [vemurafenib], the Vd ([4]; human, oral, 960 mg) was 0.9 L/kg, the “CLR (renal clearance)” value ([4]; set from 0.97% of oral dose recovered in urine as parent) was 0.01787 L/h and the IC50 (OATP1B1 [3]; [10]) was 175 µM. For the same compound, the “Effect on OATP1B1-mediated transport vs vehicle control” value (OATP1B1 [3]; vemurafenib 0.78 μM in HBSS buffer (pH 7.4), protein-free, E217βG […], 2 min) was “does not affect”, the OATP1B1-mediated transport remaining (OATP1B1 [3]; [11]) was 60.2 % of control and the “OATP1B1-mediated [3H]-E217βG transport” value (OATP1B1 [3]; vemurafenib 500 μM in 100% human plasma, E217βG 5 μM, 3 min) was 0.38 ± 0.1 fold of control. The “Uptake in OATP1B3-overexpressing cells vs vehicle control cells” value (OATP1B3 [5]) was ~ 1.5 fold, the “Time to steady state” value ([6]; 960 mg BID multiple dosing) was 15 to 21 days and the “AUC0–8 h accumulation, day 15 vs day 1” value ([6]; 960 mg BID) was 23.2 ± 16.5 fold. The CLpo [6] was 2.67 (53.5) L/h, CV%, the Median accumulation ratio [6] was 7.36 and the “Oral dose recovered in urine as parent” value [6] was 0.97%. For the same compound, the “Time to steady state for most patients” value [6] was no more than 22 days, the “ka, absorption rate constant” value ([6]; oral, population pharmacokinetic analysis) was 0.19 h⁻¹ and the “Blood-to-plasma ratio (RB)” value ([1]; [14C]-vemurafenib) was 0.58. For the same compound, the “Protein bound in human plasma” value [1] was greater than 99%, the “Unbound fraction in human plasma” value ([1]; independent of concentration 0.5–100 μM) was 0.0014 and the “Iin,max (estimated total maximum plasma concentration at the inlet to the liver)” value (Estimation of Iin,max) was 132 µM and 132.5 µM. The IC50 (OATP1B3 [7]; IC50,total against OATP1B3, 100% human plasma (pH 7.4), [3H]-CCK-8 1 μM, 3 min, HEK293-OATP1B3) was 231 µM, the IC50 at 3 min (OATP1B3 [7]; human, HEK293 cells over-expressing OATP1B3 (HEK293-OATP1B3), pH 7.4, probe [3H]-CCK-8 (1 μM), IC50,total against OATP1B3, 100% human plasma (pH 7.4), [3H]-CCK-8 1 μM, 3 min, HEK293-OATP1B3) was 232 ± 26 µM and the “Effect on OATP1B3-mediated transport vs vehicle control” value (OATP1B3 [7]; vemurafenib 0.78 μM in HBSS buffer (pH 7.4), protein-free, CCK-8 1 μM, 3 min) was “does not affect”. For the same compound, the OATP1B3-mediated transport remaining (OATP1B3 [7]; [11]) was 72.1 % of control, the “OATP1B3-mediated [3H]-CCK-8 transport” value (OATP1B3 [7]; vemurafenib 500 μM in 100% human plasma, CCK-8 1 μM, 3 min) was 0.13 ± 0.04 fold of control and the “Passive permeability coefficient in Caco-2 cell monolayers” value (Caco-2 cell monolayers; ranitidine as reference compound) was 2.9 10^−6 cm/s. The “pKa (first)” value ([8]; diprotic acid) was 7.9, the “pKa (second)” value ([8]; diprotic acid) was 11.1 and the Aqueous solubility [8] was 0.78 µM. For the same compound, the Aqueous solubility ([8]; listed as Vemurafenib) was ~ 0.78 μM, the “Log PO:W” value ([8]; neutral species octanol:buffer partition coefficient) was 3 and the “Decrease of OATP1B1-mediated [3H]-E217βG transport” value (OATP1B1 [9]) was ~ 75% and 75%.

For Cholecystokinin 8 [CCK-8], the Km (OATP1B3 [5]) is given as roughly 3.8 µM.
